Results published in patent EP4178959B1, “NITROGEN HETEROCYCLIC CYTOKININ DERIVATIVES, COMPOSITIONS CONTAINING THESE DERIVATIVES AND USE THEREOF” (Univerzita Palackého v Olomouci, priority 2020, dated 2022).

Experiments:
[1] = Calcein AM cytotoxicity assay, BJ cells; details: human; for CC50 at 72 h: bj fibroblasts
Experimental: (§1) All compound concentrations were examined in duplicates. […] Zero cytotoxicity is a basic prerequisite for the use of these substances in cosmetical applications. To assess the antitumor activity, the toxicity of new derivatives on panels containing cell lines of different histogenic and species origin was tested (Table 5). […] The compounds listed in Table 5 can be divided into 2 groups.
(§2) The first group contains "classical cytokinins" represented by 6-substituted purines (their effects are already known). The second group includes novel 2-fluoro-N6-substituted-9-(2-oxacycloalkyl)-9H-purine-6-amine derivatives. […] Low cytotoxicity (high IC50 value) of the compounds is the basic prerequisite for cosmetic and medical applications. […] Table 5: Cytotoxicity of novel compounds for different normal cell lines tested / IC50 (µmol/L)

[2] = Calcein AM cytotoxicity assay, NIH3T3 cells; details: mouse; for CC50 at 72 h: nih3t3 cells
Experimental: as §1, §2

[3] = Calcein AM cytotoxicity assay, B10A.4 cells; details: mouse; for CC50 at 72 h: b10a.4 macrophages
Experimental: as §1, §2

excised wheat leaf tips = test: Senescence inhibition on winter wheat leaf segments (chlorophyll retention); design: species or system Triticum aestivum cv. Hereward; details: for Concentration with highest activity: retention of chlorophyll; for Activity (%) [10^-4mol.l^-1 KTHP = 100%] / Emax: retention of chlorophyll in excised wheat leaf tips, 96 h in the dark, at concentration with highest activity; for Emax: Triticum aestivum, foliar, read-out: Activity (%) [10^-4mol.l^-1 KTHP = 100%]
Experimental: Seeds of winter wheat, Triticum aestivum cv. Hereward, were washed under running water for 24 hours and then sown on vermiculite soaked with the Knop's solution. They were placed in the grow chamber at 25 °C with a 16/8 h light period at 50 μmol.m^-2.s^-1. After 7 days, the first leaf was fully developed and the second leaf had started to grow. A tip section of the first leaf, approximately 35 mm long, was removed from 5 seedlings and trimmed slightly to a combined weight of 100 mg. The basal ends of the five leaf tips were placed in the wells of a microtiter polystyrene plate containing 150 μl of the solution of the tested compound each. The entire plate was inserted into a plastic box lined with paper tissues soaked with distilled water to prevent leaf sections from drying out. […] The absorbance of the extract was recorded at 665 nm. In addition, chlorophyll extracts from fresh leaves and leaf tips incubated in deionised water were measured. From the obtained data, the concetration with the highest activity was selected for each compound tested. Relative activity of the compound at this concentration was calculated (Table 7). […] The values shown are means of five replicates and the whole experiment was repeated twice. The compounds to be tested were dissolved in dimethylsulfoxide (DMSO) and the solution brought up to 10^-3 M with distilled water. […] The compounds listed in Table 7 can be divided into 2 groups. The first group contains "classical 6,9-disubstituted purines (KTHP as a control)" known in prior art. […] Table 9: […]

[4] = Cytotoxicity IC50, B10A.4, first column headed B10A.4
[5] = Cytotoxicity IC50, B10A.4, second column headed B10A.4

Structure (SMILES)	IC50 at 72 h [1] [µM]	IC50 at 72 h [2] [µM]	IC50 at 72 h [3, 4] [µM]	IC50 at 72 h [3, 5] [µM]	Concentration with highest activity (excised wheat leaf tips)	Activity (%) [10^-4mol.l^-1 KTHP = 100%] (excised wheat leaf tips)	CC50 at 72 h [1] [µM]	CC50 at 72 h [2] [µM]	CC50 at 72 h [3, 4] [µM]	CC50 at 72 h [3, 5] [µM]	Emax (excised wheat leaf tips) [%]
Nc1ncnc2nc[nH]c12 [Adenine, reference compound]	> 167	> 167	> 167	> 167	–	–	–	–	–	–	–
CC(CO)CCNc1nc(F)nc2c1ncn2C1CCCO1 (stereo not drawn) [Compound 11]	–	–	–	–	10^-4 mol.l^-1	125 (± 12) %	> 167	139	146	–	–
Oc1ccccc1CNc1nc(F)nc2c1ncn2C1CCCO1 (stereo not drawn) [Compound 14]	–	–	–	–	10^-4 mol.l^-1	53.6 (± 7) %	> 167	> 167	> 167	> 167	–
Oc1ccc(CNc2nc(F)nc3c2ncn3C2CCCO2)cc1 (stereo not drawn) [Compound 16, 2-Fluoro-6-[(4-hydroxybenzyl)amino]-9-(tetrahydrofuran-2-yl)-9H-purine]	> 167	> 167	> 167	–	–	–	–	–	–	–	110
COc1cccc(CNc2nc(F)nc3c2ncn3C2CCCO2)c1O (stereo not drawn) [Compound 20]	–	–	–	–	10^-4 mol.l^-1	50 (± 5) %	137	> 141	124	126	–
COc1ccc(CNc2nc(F)nc3c2ncn3C2CCCO2)c(O)c1 (stereo not drawn) [Compound 21]	–	–	–	–	10^-4 mol.l^-1	35 (± 9.5) %	132	158	147	–	–
Oc1ccc(CNc2nc(F)nc3c2ncn3C2CCCO2)cc1O (stereo not drawn) [Compound 33]	–	–	–	–	10^-4 mol.l^-1	71.3 (± 17) %	> 167	> 167	> 167	–	–
Oc1cc(O)cc(CNc2nc(F)nc3c2ncn3C2CCCO2)c1 (stereo not drawn) [Compound 34]	–	–	–	–	10^-4 mol.l^-1	145 (± 12) %	> 167	> 167	> 167	–	–
COc1ccc(CNc2nc(F)nc3c2ncn3C2CCCO2)c(OC)c1 (stereo not drawn) [Compound 36]	–	–	–	–	10^-4 mol.l^-1	125.6 (± 15) %	> 167	> 167	> 167	–	–
COc1ccc(OC)c(CNc2nc(F)nc3c2ncn3C2CCCO2)c1 (stereo not drawn) [Compound 37]	–	–	–	–	10^-4 mol.l^-1	121.8 (± 17) %	> 167	> 167	> 167	–	–
COc1cccc(OC)c1CNc1nc(F)nc2c1ncn2C1CCCO1 (stereo not drawn) [Compound 38]	–	–	–	–	10^-4 mol.l^-1	128 (± 16) %	> 167	> 167	> 167	–	–
COc1ccc(CNc2nc(F)nc3c2ncn3C2CCCO2)cc1OC (stereo not drawn) [Compound 39]	–	–	–	–	10^-4 mol.l^-1	126 (± 21) %	> 167	> 167	> 167	–	–
COc1cc(CNc2nc(F)nc3c2ncn3C2CCCO2)cc(OC)c1 (stereo not drawn) [Compound 40]	–	–	–	–	10^-4 mol.l^-1	163 (± 8) %	> 167	> 167	> 167	–	–
COc1cc(CNc2nc(F)nc3c2ncn3C2CCCO2)cc(OC)c1O (stereo not drawn) [Compound 41]	–	–	–	–	10^-4 mol.l^-1	42 (± 13) %	> 167	> 167	> 167	–	–
COc1cc(O)cc(OC)c1CNc1nc(F)nc2c1ncn2C1CCCO1 (stereo not drawn) [Compound 42]	–	–	–	–	10^-4 mol.l^-1	22 (± 4) %	> 167	> 167	> 167	–	–
COc1cc(CNc2nc(F)nc3c2ncn3C2CCCO2)ccc1O (stereo not drawn) [Compound 43, 2-Fluoro-6-[(4-hydroxy-3-methoxybenzyl)amino]-9-(tetrahydrofuran-2-yl)-9H-purine]	> 167	> 167	> 167	–	–	–	–	–	–	–	55
COc1cc(O)cc(CNc2nc(F)nc3c2ncn3C2CCCO2)c1 (stereo not drawn) [Compound 44]	–	–	–	–	10^-4 mol.l^-1	47 (± 11) %	> 167	> 167	> 167	–	–
Cc1cccc(CNc2nc(F)nc3c2ncn3C2CCCO2)c1O (stereo not drawn) [Compound 49]	–	–	–	–	10^-4 mol.l^-1	16.4 (± 3) %	161	> 167	156	–	–
Cc1ccc(O)c(CNc2nc(F)nc3c2ncn3C2CCCO2)c1 (stereo not drawn) [Compound 50]	–	–	–	–	10^-4 mol.l^-1	82 (± 12) %	> 167	> 167	> 167	–	–
Cc1cc(CNc2nc(F)nc3c2ncn3C2CCCO2)ccc1O (stereo not drawn) [Compound 51]	–	–	–	–	10^-4 mol.l^-1	19 (± 2) %	> 167	> 167	> 167	–	–
Cc1cc(O)cc(CNc2nc(F)nc3c2ncn3C2CCCO2)c1 (stereo not drawn) [Compound 52]	–	–	–	–	10^-4 mol.l^-1	23 (± 1) %	> 167	> 167	> 167	–	–
Oc1ccoc1CNc1nc(F)nc2c1ncn2C1CCCO1 (stereo not drawn) [Compound 53]	–	–	–	–	10^-4 mol.l^-1	45 (± 13) %	> 167	> 167	> 167	–	–
Oc1ccc(CNc2nc(F)nc3c2ncn3C2CCCO2)o1 (stereo not drawn) [Compound 55]	–	–	–	–	10^-4 mol.l^-1	101 (± 17) %	> 167	> 167	> 167	–	–
Cc1ccc(CNc2nc(F)nc3c2ncn3C2CCCCO2)o1 (stereo not drawn) [Compound 60, 2-Fluoro-6-[(5-methylfurfuryl)amino]-9-(tetrahydro-2H-pyran-2-yl)-9H-purine]	> 167	> 167	> 167	–	–	–	–	–	–	–	123
c1coc(CNc2ncnc3c2ncn3C2CCCCO2)c1 (stereo not drawn) [KTHP, 6-furfurylamino-9-tetrahydropyranylpurine, reference compound]	–	–	–	–	10^-4 mol.l^-1	100 (± 8.6) %	–	–	–	–	–
c1coc(CNc2ncnc3[nH]cnc23)c1 [Kinetin, reference compound]	148	133	> 167	164	–	–	–	–	–	–	–
CC(C)=CCNc1ncnc2nc[nH]c12 [isopentenyladenine, reference compound]	–	–	–	–	–	–	134	124	> 167	147	–
Oc1ccccc1CNc1ncnc2nc[nH]c12 [ortho-topolin, reference compound]	–	–	–	–	–	–	108	94.1	87.5	94.3	–
